ChEMBL document CHEMBL1146948, “Synthesis and biological activity of diaryl ether inhibitors of malarial enoyl acyl carrier protein reductase. Part 2: 2'-substituted triclosan derivatives” (Bioorg Med Chem Lett, 2006)

Assays:
[1] = target: T1, Enoyl-acyl-carrier protein reductase (Plasmodium falciparum, UniProt Q965D5); assay: Inhibition of Plasmodium falciparum ENR enzymatic activity
T1 sequence (Q965D5 whole entry): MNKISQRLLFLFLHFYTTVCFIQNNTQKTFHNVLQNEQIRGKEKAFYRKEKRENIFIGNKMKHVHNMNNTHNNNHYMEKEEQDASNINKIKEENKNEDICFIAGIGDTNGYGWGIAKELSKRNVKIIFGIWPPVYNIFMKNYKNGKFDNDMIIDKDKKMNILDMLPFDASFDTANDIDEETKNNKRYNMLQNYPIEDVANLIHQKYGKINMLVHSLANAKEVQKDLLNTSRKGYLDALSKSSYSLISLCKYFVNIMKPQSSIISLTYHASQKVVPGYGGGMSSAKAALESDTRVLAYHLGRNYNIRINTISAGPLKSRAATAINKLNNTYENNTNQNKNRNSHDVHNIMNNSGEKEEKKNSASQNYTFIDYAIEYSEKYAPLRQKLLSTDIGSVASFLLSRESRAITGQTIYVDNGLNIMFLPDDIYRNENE

Plasmodium falciparum [2] = assay: Antimalarial activity against Plasmodium falciparum Dd2; type: functional, organism-based
Plasmodium falciparum [3] = assay: Antimalarial activity against Plasmodium falciparum 3D7; type: functional, organism-based

`Oc1cc(Cl)ccc1Oc1ccc(Cl)cc1CN1CCCC1` gave an IC50 [1] greater than 50000 nM, an EC50 (Plasmodium falciparum [2]) of 450 nM and an EC50 (Plasmodium falciparum [3]) of 500 nM.

For `Oc1cc(Cl)ccc1Oc1ccc(Cl)cc1CN1CCN(Cc2ccccc2)CC1`, the IC50 [1] was 11000 nM, the EC50 (Plasmodium falciparum [2]) was 620 nM and the EC50 (Plasmodium falciparum [3]) was 630 nM.

Work on `Oc1cc(Cl)ccc1Oc1ccc(Cl)cc1CNCc1ccc2c(c1)CCO2` yielded an IC50 [1] of 9000 nM, an EC50 (Plasmodium falciparum [2]) of 110 nM and an EC50 (Plasmodium falciparum [3]) of 180 nM.

`Nc1ccccc1Oc1ccc(Cl)cc1O` was tested, and the IC50 [1] was 7000 nM, the EC50 (Plasmodium falciparum [2]) was 140000 nM and the EC50 (Plasmodium falciparum [3]) was 83000 nM.

For `Oc1cc(Cl)ccc1Oc1ccc(Cl)cc1CNc1ccc2ccccc2c1`, the IC50 [1] was 26000 nM, the EC50 (Plasmodium falciparum [2]) was 140 nM and the EC50 (Plasmodium falciparum [3]) was 210 nM.

`COc1cc(Cl)ccc1Oc1ccccc1CNCc1ccc(Cl)cc1` gave an IC50 [1] greater than 50000 nM, an EC50 (Plasmodium falciparum [2]) of 24000 nM and an EC50 (Plasmodium falciparum [3]) of 19000 nM.

With `Oc1cc(Cl)ccc1Oc1ccc(Cl)cc1CN1CCCCC1` the IC50 [1] was greater than 50000 nM, the EC50 (Plasmodium falciparum [2]) was 480 nM and the EC50 (Plasmodium falciparum [3]) was 730 nM.

`Oc1cc(Cl)ccc1Oc1ccccc1CNCc1ccccc1` gave an IC50 [1] of 10000 nM, an EC50 (Plasmodium falciparum [2]) of 420 nM and an EC50 (Plasmodium falciparum [3]) of 490 nM.

Compound `Oc1cc(Cl)ccc1Oc1ccccc1CNCc1ccc(Cl)cc1` has an IC50 [1] of 35000 nM, an EC50 (Plasmodium falciparum [2]) of 300 nM and an EC50 (Plasmodium falciparum [3]) of 330 nM.

Work on `O=C(NCc1cc(Cl)ccc1Oc1ccc(Cl)cc1O)c1ccccc1` yielded an IC50 [1] of 18000 nM, an EC50 (Plasmodium falciparum [2]) of 12000 nM and an EC50 (Plasmodium falciparum [3]) of 8600 nM.

In the case of `Oc1cc(Cl)ccc1Oc1ccccc1CNCCCc1ccccc1`, the IC50 [1] is reported as 19000 nM, the EC50 (Plasmodium falciparum [2]) is reported as 390 nM and the EC50 (Plasmodium falciparum [3]) is reported as 320 nM.

In the case of `Oc1cc(Cl)ccc1Oc1ccccc1CNc1cccc2ccccc12`, the IC50 [1] is reported as 11000 nM, the EC50 (Plasmodium falciparum [2]) is reported as 370 nM and the EC50 (Plasmodium falciparum [3]) is reported as 300 nM.

Work on `CC(C)(NCc1ccc(Cl)cc1)c1cc(Cl)ccc1Oc1ccc(Cl)cc1O` yielded an IC50 [1] of 7200 nM, an EC50 (Plasmodium falciparum [2]) of 350 nM and an EC50 (Plasmodium falciparum [3]) of 410 nM.

`Oc1cc(Cl)ccc1Oc1ccccc1CNc1ccc2ccccc2c1` was tested, and the IC50 [1] was 46000 nM, the EC50 (Plasmodium falciparum [2]) was 330 nM and the EC50 (Plasmodium falciparum [3]) was 450 nM.

For `Oc1cc(Cl)ccc1Oc1ccc(Cl)cc1CNCc1ccccc1`, the IC50 [1] was 3300 nM, the EC50 (Plasmodium falciparum [2]) was 830 nM and the EC50 (Plasmodium falciparum [3]) was 770 nM.

`Oc1cc(Cl)ccc1Oc1ccc(Cl)cc1CNc1cccc2ccccc12` gave an IC50 [1] greater than 50000 nM, an EC50 (Plasmodium falciparum [2]) of 2200 nM and an EC50 (Plasmodium falciparum [3]) of 2600 nM.

In the case of `CNCc1cc(Cl)ccc1Oc1ccc(Cl)cc1O`, the IC50 [1] is reported as 27000 nM, the EC50 (Plasmodium falciparum [2]) is reported as 470 nM and the EC50 (Plasmodium falciparum [3]) is reported as 580 nM.

`CN(Cc1ccc(Cl)cc1)Cc1cc(Cl)ccc1Oc1ccc(Cl)cc1O` showed an IC50 [1] of 22000 nM, an EC50 (Plasmodium falciparum [2]) of 190 nM and an EC50 (Plasmodium falciparum [3]) of 250 nM.

`Oc1cc(Cl)ccc1Oc1ccc(Cl)cc1CNCc1ccc(-c2ccccc2)cc1` showed an IC50 [1] of 35000 nM, an EC50 (Plasmodium falciparum [2]) of 150 nM and an EC50 (Plasmodium falciparum [3]) of 230 nM.

For `Oc1cc(Cl)ccc1Oc1ccc(Cl)cc1CN1CCN(C(c2ccccc2)c2ccccc2)CC1`, the IC50 [1] was greater than 50000 nM, the EC50 (Plasmodium falciparum [2]) was 1400 nM and the EC50 (Plasmodium falciparum [3]) was 2100 nM.

Compound `NCc1cc(Cl)ccc1Oc1ccc(Cl)cc1O` has an IC50 [1] greater than 50000 nM, an EC50 (Plasmodium falciparum [2]) of 2000 nM and an EC50 (Plasmodium falciparum [3]) of 2700 nM.

`CC(=O)N(Cc1ccc(Cl)cc1)Cc1cc(Cl)ccc1Oc1ccc(Cl)cc1O` was tested, and the IC50 [1] was 28000 nM, the EC50 (Plasmodium falciparum [2]) was 5900 nM and the EC50 (Plasmodium falciparum [3]) was 3500 nM.

`CN(C)Cc1cc(Cl)ccc1Oc1ccc(Cl)cc1O` gave an IC50 [1] of 19000 nM, an EC50 (Plasmodium falciparum [2]) of 220 nM and an EC50 (Plasmodium falciparum [3]) of 180 nM.

For `Oc1cc(Cl)ccc1Oc1ccc(Cl)cc1CN1CCN(c2ccccc2)CC1`, the IC50 [1] was 6100 nM, the EC50 (Plasmodium falciparum [2]) was 15000 nM and the EC50 (Plasmodium falciparum [3]) was 14000 nM.

`Oc1cc(Cl)ccc1Oc1ccccc1CNCCc1ccccc1` was tested, and the IC50 [1] was 2500 nM, the EC50 (Plasmodium falciparum [2]) was 750 nM and the EC50 (Plasmodium falciparum [3]) was 780 nM.

In the case of `Oc1cc(Cl)ccc1Oc1ccc(Cl)cc1CNCc1ccc(Cl)cc1`, the IC50 [1] is reported as 7200 nM, the EC50 (Plasmodium falciparum [2]) is reported as 270 nM and the EC50 (Plasmodium falciparum [3]) is reported as 320 nM.

`CN(Cc1ccc(Cl)cc1)C(C)(C)c1cc(Cl)ccc1Oc1ccc(Cl)cc1O` gave an IC50 [1] of 27000 nM, an EC50 (Plasmodium falciparum [2]) of 380 nM and an EC50 (Plasmodium falciparum [3]) of 140 nM.

For `NCc1ccccc1Oc1ccc(Cl)cc1O`, the IC50 [1] was greater than 50000 nM, the EC50 (Plasmodium falciparum [2]) was 7200 nM and the EC50 (Plasmodium falciparum [3]) was 9700 nM.

`O=S(=O)(NCc1cc(Cl)ccc1Oc1ccc(Cl)cc1O)c1ccccc1` was tested, and the IC50 [1] was 15000 nM, the EC50 (Plasmodium falciparum [2]) was 17000 nM and the EC50 (Plasmodium falciparum [3]) was 11000 nM.
